≈ marks a conversion by molar mass, not a printed value. Where two headings read alike, the source gives them in different places.
What was measured:
Trichomonas Vaginalis = test: In vitro Activity Against Trichomonas Vaginalis, Table II; assay type: cell-based; conditions: for IC99: read-out: Minimal 99% suppression level; for MBC: read-out: Minimal Cidal Level
Text: (§1) In general, the novel pseudotrisaccharides of this invention (I) can be used to treat diverse types of susceptible microbial, viral, helmintic and protozoal infestations. These anthelmintic, antiprotozoal, antimicrobial and antiviral activities can readily be determined by standard in vivo and in vitro tests well known to the microbiologist and virologist. Of the compounds of this invention it can generally be stated that those 6'--NH2 or 6'--NHR4 compounds having a 2'--OH group are preferred for their activity against bacteria, trichomonas, amoeba, and helminths; those 2'--HN2 or 2'--NHR4 compounds having a 6'--OH group are preferred for their activity against bacteria, trichomona, amoeba, and helminths; those 2'--NH2 or 2'--NHR4 compounds having a 6'--NH2 or a 6'--NHR4 group are preferred for their antibacterial activity while those 2'--OH or 6'--OH compounds are preferred for their antitrichomonal activity.
(§2) Typical activity is illustrated by the following tables showing antibacterial and antiprotozoal activities.
In vitro Activity Against Trichomonas Vaginalis
STS - Simplified Tripticase Serum Medium, Baltimore Biological
Laboratories, Baltimore, Maryland.

[1] = test system: Klebsiella pneumoniae (N,M resistant); test: Minimal Inhibitory Concentration (MIC), Table I; assay type: cell-based
Text: as §1, §2
(§3) Minimal Inhibitory Concentration (MIC) (mcg/ml)

Staphylococcus aureus = test: Minimal Inhibitory Concentration (MIC), Table I; assay type: cell-based
Text: as §1, §2, §3

Bacillus subtilis = test: Minimal Inhibitory Concentration (MIC), Table I; assay type: cell-based
Text: as §1, §2, §3

Proteus mirabilis = test: Minimal Inhibitory Concentration (MIC), Table I; assay type: cell-based
Text: as §1, §2, §3

Providence = test: Minimal Inhibitory Concentration (MIC), Table I; assay type: cell-based
Text: as §1, §2, §3

Serratia marcessans = test: Minimal Inhibitory Concentration (MIC), Table I; assay type: cell-based
Text: as §1, §2, §3

[2] = test system: Escherichia coli (G resistant); test: Minimal Inhibitory Concentration (MIC), Table I; assay type: cell-based; conditions: garamycin resistant
Text: as §1, §2, §3

[3] = test system: Escherichia coli (N,K resistant); test: Minimal Inhibitory Concentration (MIC), Table I; assay type: cell-based; conditions: neomycin, kanamycin resistant
Text: as §1, §2, §3

[4] = test system: Pseudomonas aeruginosa (G resistant); test: Minimal Inhibitory Concentration (MIC), Table I; assay type: cell-based; conditions: garamycin resistant
Text: as §1, §2, §3

[5] = test system: Klebsiella pneumoniae (G-resistant); test: Minimal Inhibitory Concentration (MIC), Table I; assay type: cell-based; conditions: garamycin resistant
Text: as §1, §2, §3

Streptococcus pyogenes C = test: Minimal Inhibitory Concentration (MIC), Table I; assay type: cell-based
Text: as §1, §2, §3

[6] = test system: Escherichia coli (T resistant); test: Minimal Inhibitory Concentration (MIC), Table I; assay type: cell-based; conditions: tobramycin resistant
Text: as §1, §2, §3

Escherichia coli = test: Minimal Inhibitory Concentration (MIC), Table I; assay type: cell-based
Text: as §1, §2, §3

Salmonella typhimurium = test: Minimal Inhibitory Concentration (MIC), Table I; assay type: cell-based; conditions: Salmonella enterica
Text: as §1, §2, §3

Pseudomonas aeruginosa = test: Minimal Inhibitory Concentration (MIC), Table I; assay type: cell-based
Text: as §1, §2, §3

pKa of garamine = assay type: physicochemical
Experimental: i. 1,3,3'-Tri-N-carbobenzoxygaramine (2.02 g.) was dissolved in methanol (100 ml.), and 10% palladium on carbon (1.0 g.) was added. The mixture was hydrogenated at 25° at 50 lbs/sq. in. for 16 hours, and the catalyst was filtered off, and washed with methanol. The filtrate was evaporated, and chromatographed on silica gel using the lower phase of a chloroform-methanol-concentrated ammonium hydroxide (2:1:1) system as the eluent. The fractions containing the garamine were concentrated in vacuo to small volume, and were then passed through Amberlite IR45 resin. The eluate was concentrated to small volume in vacuo, and the resulting solution was lyophilized to give garamine (750 mg.) (84%) as a colorless amorphous solid, m.p. 89°-99°, (Found: C, 48.31; H, 8.54; N, 12.87. C13 H27 N3 O6 requires: C, 48.60; H, 8.41; N, 13.08%), m/e 322 (M^+ +1), [α]D^26 + 135.4° (H2 O), pKa 8.5, .nu. max (nujol) 3300, 1060 cm.^-1, δ (D 2 O) 1.19 (3H, s, 4'--CH3), 2.51 (3H, s, 3'--NCH3), 2.57 (1H, d, J2',3' =10.5 Hz, H3'), 3.30 )1H, d, J5'a,5'e =12.5 Hz, H5'a), 3.79 (1H, dd, J2',3' =10.5 Hz, J1',2' =4 Hz, H2'), 4.03 (1H, d, J5'a,5'e =12.5 Hz, H5'e), 5.06 ppm. (1H, d, J1',2' =4 Hz, H1').

| MIC [1] [µg/mL] | MIC (Staphylococcus aureus) [µg/mL] | MIC (Bacillus subtilis) [µg/mL] | MIC (Proteus mirabilis) [µg/mL] | MIC (Providence) [µg/mL] | MIC (Serratia marcessans) [µg/mL] | MIC [2] [µg/mL] | MIC [3] [µg/mL] | MIC [4] [µg/mL] | MIC [5] [µg/mL] | MIC (Streptococcus pyogenes C) [µg/mL] | MIC [6] [µg/mL] | MIC (Escherichia coli) [µg/mL] | MIC (Salmonella typhimurium) [µg/mL] | MIC (Pseudomonas aeruginosa) [µg/mL] | pKa (pKa of garamine) | SMILES | IC99 (Trichomonas Vaginalis; 24 hr.) [µg/mL] | MBC (Trichomonas Vaginalis; 24 hr.) [µg/mL] | IC99 (Trichomonas Vaginalis; 48 hr.) [µg/mL] | MBC (Trichomonas Vaginalis; 48 hr.) [µg/mL] |
| --- | --- | --- | --- | --- | --- | --- | --- | --- | --- | --- | --- | --- | --- | --- | --- | --- | --- | --- | --- | --- |
| > 25 | 0.3 to 7.5 (≈ 0.622 to 15.5 µM) | 0.08 (≈ 0.166 µM) | 3 (≈ 6.22 µM) | > 25 | > 25 | > 25 | > 25 | > 25 | > 25 | 1 to 17.5 (≈ 2.07 to 36.3 µM) | > 25 | 0.8 to 3 (≈ 1.66 to 6.22 µM) |  |  |  | CN[C@@H]1[C@@H](O)[C@@H](O[C@@H]2[C@@H](O)[C@H](O[C@H]3O[C@H](CO)[C@@H](O)[C@H](O)[C@H]3N)[C@@H](N)C[C@H]2N)OC[C@]1(C)O (stereo in doubt) [Gentamicin X2] | 10 | 10 (≈ 20.7 µM) | < 10 | 10 (≈ 20.7 µM) |
| 0.08 (≈ 0.172 µM) | 0.08 to 0.3 (≈ 0.172 to 0.644 µM) | < 0.05 | 0.3 (≈ 0.644 µM) | > 25 | 3 (≈ 6.44 µM) | > 25 | 0.08 to 0.8 (≈ 0.172 to 1.72 µM) | > 25 |  | 0.8 to 7.5 (≈ 1.72 to 16.1 µM) | 17.5 (≈ 37.6 µM) | 0.08 (≈ 0.172 µM) | 0.75 (≈ 1.61 µM) | 0.08 to 0.8 (≈ 0.172 to 1.72 µM) |  | CN[C@@H]1[C@@H](O)[C@@H](O[C@@H]2[C@@H](O)[C@H](O[C@H]3O[C@H](CN)[C@@H](O)C[C@H]3N)[C@@H](N)C[C@H]2N)OC[C@]1(C)O [3'-deoxy-JI-20A, O-2,6-Diamino-2,3,6-trideoxy-α-D-glucopyranosyl-(1→4)-garamine] |  |  |  |  |
|  |  |  |  |  |  |  |  |  |  |  |  |  |  |  | 8.5 | CN[C@@H]1[C@@H](O)[C@@H](O[C@@H]2[C@@H](O)[C@H](O)[C@@H](N)C[C@H]2N)OC[C@]1(C)O [Garamine, 0-3-deoxy-4-C-methyl-3-(methylamino)-β-L-arabinopyranosyl-(1→6)-2-deoxy-D-streptamine] |  |  |  |  |
| > 25 | 0.3 (≈ 0.623 µM) | < 0.05 | 7.5 (≈ 15.6 µM) | > 25 | > 25 | > 25 |  | > 25 | > 25 | 17.5 (≈ 36.3 µM) | > 25 | 0.3 (≈ 0.623 µM) | 0.3 (≈ 0.623 µM) | 7.5 to 17.5 (≈ 15.6 to 36.3 µM) |  | CN[C@@H]1[C@@H](O)[C@@H](O[C@@H]2[C@@H](O)[C@H](O[C@H]3O[C@H](CN)[C@@H](O)[C@H](O)[C@H]3N)[C@@H](N)C[C@H]2N)OC[C@]1(C)O [JI-20A] |  |  |  |  |

Second part, the compound before the results:

| SMILES | MIC [1] [µg/mL] | MIC (Staphylococcus aureus) [µg/mL] | MIC (Bacillus subtilis) [µg/mL] | MIC (Proteus mirabilis) [µg/mL] | MIC (Providence) [µg/mL] | MIC (Serratia marcessans) [µg/mL] | MIC [2] [µg/mL] | MIC [3] [µg/mL] | MIC [4] [µg/mL] | MIC [5] [µg/mL] | MIC (Streptococcus pyogenes C) [µg/mL] | MIC [6] [µg/mL] | MIC (Escherichia coli) [µg/mL] | MIC (Salmonella typhimurium) [µg/mL] | MIC (Pseudomonas aeruginosa) [µg/mL] | pKa (pKa of garamine) | IC99 (Trichomonas Vaginalis; 24 hr.) [µg/mL] | MBC (Trichomonas Vaginalis; 24 hr.) [µg/mL] | IC99 (Trichomonas Vaginalis; 48 hr.) [µg/mL] | MBC (Trichomonas Vaginalis; 48 hr.) [µg/mL] |
| --- | --- | --- | --- | --- | --- | --- | --- | --- | --- | --- | --- | --- | --- | --- | --- | --- | --- | --- | --- | --- |
| CCN[C@H]1[C@@H](O[C@H]2[C@H](O)[C@@H](O[C@H]3OC[C@](C)(O)[C@H](NC)[C@H]3O)[C@H](N)C[C@@H]2N)O[C@H](CO)[C@@H](O)[C@@H]1O [2'-N-Ethylgentamicin X2] | > 25 | 3 to 7.5 (≈ 5.88 to 14.7 µM) | 3 (≈ 5.88 µM) | > 25 | > 25 | > 25 |  | > 25 | > 25 | > 25 |  | > 25 |  | 3 (≈ 5.88 µM) |  |  | < 10 | 10 (≈ 19.6 µM) | < 2.5 | 2.5 (≈ 4.9 µM) |
| CCN[C@@H]1C[C@H](O)[C@@H](CO)O[C@@H]1O[C@H]1[C@H](O)[C@@H](O[C@H]2OC[C@](C)(O)[C@H](NC)[C@H]2O)[C@H](N)C[C@@H]1N [3'-Deoxy-2'-N-ethylgentamicin X2] | 3 to 7.5 (≈ 6.07 to 15.2 µM) |  | > 25 | > 25 | > 25 | 3 (≈ 6.07 µM) | > 25 | 17.5 (≈ 35.4 µM) | > 25 | > 25 | > 25 | 3 (≈ 6.07 µM) |  |  |  |  | < 2.5 | < 2.5 | < 2.5 | < 2.5 |
| CNC[C@H]1O[C@H](O[C@H]2[C@H](O)[C@@H](O[C@H]3OC[C@](C)(O)[C@H](NC)[C@H]3O)[C@H](N)C[C@@H]2N)[C@H](O)C[C@@H]1O [3'-Deoxy-6'-N-methylgentamicin B] | 0.3 to 0.75 (≈ 0.624 to 1.56 µM) | 0.1 to 0.3 (≈ 0.208 to 0.624 µM) | < 0.1 | 0.75 to 3 (≈ 1.56 to 6.24 µM) | 3 (≈ 6.24 µM) | 3 (≈ 6.24 µM) |  | 0.75 to 17.5 (≈ 1.56 to 36.4 µM) |  | > 25 | 0.1 to 17.5 (≈ 0.208 to 36.4 µM) | > 25 | 0.1 to 0.75 (≈ 0.208 to 1.56 µM) |  | 0.1 to 3 (≈ 0.208 to 6.24 µM) |  |  |  |  |  |
| CN[C@@H]1[C@@H](O)[C@@H](O[C@@H]2[C@@H](O)[C@H](O[C@H]3O[C@H](CO)[C@@H](O)C[C@H]3N)[C@@H](N)C[C@H]2N)OC[C@]1(C)O [3'-Deoxygentamicin X2] | 0.8 to 3 (≈ 1.71 to 6.43 µM) | 0.5 to 7.5 (≈ 1.07 to 16.1 µM) | 0.03 (≈ 0.0643 µM) | 7.5 (≈ 16.1 µM) | > 25 | 0.8 (≈ 1.71 µM) | > 25 | 3 to 7.5 (≈ 6.43 to 16.1 µM) | > 25 | > 25 |  | 17.5 (≈ 37.5 µM) | 3 to 7.5 (≈ 6.43 to 16.1 µM) | 7.5 (≈ 16.1 µM) | 3 to 7.5 (≈ 6.43 to 16.1 µM) |  | 10 | 10 (≈ 21.4 µM) | < 10 | 10 (≈ 21.4 µM) |
| CN[C@@H]1[C@@H](O)[C@@H](O[C@@H]2[C@@H](O)[C@H](O[C@H]3O[C@H](CO)[C@@H](O)[C@H](O)[C@H]3O)[C@@H](N)C[C@H]2N)OC[C@]1(C)O [O-α-D-Glucopyranosyl-(1→4)-garamine] |  |  |  |  |  |  |  |  |  |  |  |  |  |  |  |  | 10 | 25 (≈ 51.7 µM) | < 10 | 10 (≈ 20.7 µM) |

From US4063015A, “Garamine and derivatives thereof” (Schering Corporation, priority 1975, dated 1977)
